How the values were obtained:
[1] = test system: A549 lung cancer cells; assay: EdU proliferation of tumor cells treated with CBD; assay type: cell-based; conditions: CBD 5, 10, 20 μM, 24 h
Experimental: (§1) Different types of tumor cells (RKO colorectal cancer cells, H1975 lung cancer cells, and A549 lung cancer cells) in the logarithmic growth phase were respectively inoculated into a 96-well plate at an inoculum density of 5×10^3 per well, and then, the tumor cells were placed into an incubator at 37° C. and 5% CO2 for incubation for 24 h; a CBD mother solution (10 mM) was respectively diluted with culture medium to 5 μM, 10 μM, or 20 μM, and the culture medium in the 96-well plate was aspirated off, 100 μL of culture medium containing different concentrations of CBD was added to each well, a control well (0 μM CBD) was set, and the cells were continuously incubated for 24 h. After the culture was completed, the quantity of proliferating tumor cells was detected with an EdU kit (Beyotime, C0085S). Finally, a high-content imaging analysis system was used for photographing and the data were counted.

[2] = test system: H1975 lung cancer cells; assay: EdU proliferation of tumor cells treated with CBD; assay type: cell-based; conditions: CBD 5, 10, 20 μM, 24 h
Experimental: as §1

[3] = test system: RKO colorectal cancer cells; assay: EdU proliferation of tumor cells treated with CBD; assay type: cell-based; conditions: CBD 5, 10, 20 μM, 24 h
Experimental: as §1

[4] = test system: PD-L1 in A549 lung cancer cells; assay: PD-L1 expression by Western blotting; assay type: cell-based; conditions: concentration-dependent at 5, 10, 20 μM, 24 h
Experimental: (§2) Different types of well-grown tumor cells (RKO colorectal cancer cells, H1975 lung cancer cells, and A549 lung cancer cells) with a density of 80% or more were respectively spread on a 6-well plate at a density of 5×10^4 cells/well, the volume of the suspension in each well was 2 mL, and the cells were subsequently placed in an incubator at 37° C. for culture. […] After the cells were continuously cultured for 24 h, the culture was terminated, and subsequent detection was conducted.
(§3) After the culture was terminated, the cells were collected and washed with cold PBS 2 times. After the PBS residue was removed, a proper amount of cell lysate was added for cracking, and the cells were incubated on ice for 15 min and then centrifuged on a 4° C. centrifuge at 12,000 rpm for 15 min. The supernatant was carefully aspirated, the protein concentration was measured via the BCA method, a corresponding amount of loading buffer was added, the cells were evenly shaken and incubated in a 100° C. water bath for 10 min, and finally, the sample was subjected to a protein immunoblotting experiment.

[5] = test system: PD-L1 in H1975 lung cancer cells; assay: PD-L1 expression by Western blotting; assay type: cell-based; conditions: concentration-dependent at 5, 10, 20 μM, 24 h
Experimental: as §2, §3

[6] = test system: PD-L1 in RKO colorectal cancer cells; assay: PD-L1 expression by Western blotting; assay type: cell-based; conditions: concentration-dependent at 5, 10, 20 μM, 24 h
Experimental: as §2, §3

[7] = test system: PD-L1 on RKO colon cancer cell membranes; assay: PD-L1 on cell membrane by immunofluorescence; assay type: cell-based; conditions: 20 μM CBD, different time
Experimental: • (1) Different types of tumor cells (RKO, HCT116 and HT29 colon cancer cells, and A549, H1975 and H460 lung cancer cells) in the logarithmic growth phase were respectively inoculated on a 6-well plate at an inoculum density of 2.5×10^5 cells/well with 2 mL/well and then placed in a cell incubator overnight incubation. The culture mixture was removed, CBD at different concentrations (0 μM, 5 μM, 10 μM, and 20 μM) was added for treatment for 24 h, the supernatant was removed, and the cells were washed with PBS 2 times, digested with pancreatin, centrifuged at 300×g and 4° C. for 5 min, and collected. The cells were washed with precooled PBS 2 times, centrifuged at 300×g and 4° C. for 5 min, and collected. The cells were washed 2 times with precooled PBS, 100 μL of PBS was added to resuspend the cells, an anti-PD-L1-Alexa Fluor 647 antibody was added, the cells were incubated at room temperature for 30 min and centrifuged at 300×g and 4° C. for 5 min, 300 μL of PBS was added to resuspend the cells in a flow tube, and an Alexa Fluor 647 signal was detected from the sample using a flow cytometer (excitation/emission wavelength of 647 nm/666 nm). • (2) The colorectal cancer cells (RKO) in the logarithmic growth phase were inoculated into a 6-well plate at a density of 2.5×10^5 cells/well, with a 2 mL volume of the suspension in each well. […]

[8] = test system: MC38 colon cancer cells; assay: MC38 subcutaneous tumor model, curcumin-administrated groups, Embodiment 4; assay type: in vivo, C57BL/6 mice; conditions: CBD 100 mg/kg, curcumin 50 mg/kg, piperine 1 mg/kg, vitamin E 50 mg/kg, thymosin 2 mg/kg; vs control
Experimental: MC38 colon cancer cells were inoculated into 6-week-old female C57BL/6 mice (1×10^6 cells/mouse) to establish a subcutaneous tumor model. After the tumor volume reached 50 mm^3, the mice in the artemisinin-administered groups were grouped and administered with the following pharmaceutical combinations: (1) control group, (2) CBD (100 mg/kg)+vitamin E(α-tocopherol) (50 mg/kg)+thymosin (2 mg/kg) group, and (3) CBD (100 mg/kg)+artemisinin (20 mg/kg)+vitamin E(α-tocopherol) (50 mg/kg)+thymosin (2 mg/kg). The mice in curcumin-administrated group were grouped and administered with the following pharmaceutical combinations: (1) control group, (2) CBD (100 mg/kg) group, (3) curcumin (50 mg/kg)+piperine (1 mg/kg) group, (4) CBD (100 mg/kg)+curcumin (50 mg/kg)+piperine group (1 mg/kg), and (5) CBD (100 mg/kg)+curcumin (50 mg/kg)+piperine (1 mg/kg)+vitamin E(α-tocopherol) (50 mg/kg)+thymosin (2 mg/kg).
The tumor growth volume of the mice was monitored once every 2 days. The tumor volume was calculated as follows: tumor volume (mm^3)=0.5×(length)x(width)^2. The mice were sacrificed 14 days after drug administration, and the tumors were dissected. […]

C=C(C)[C@@H]1CCC(C)=C[C@H]1c1c(O)cc(CCCCC)cc1O [CBD, cannabidiol]
toxicity to tumor cells (proliferation, EdU fluorescence intensity) [1]: not significantly toxic
toxicity to tumor cells (proliferation, EdU fluorescence intensity) [2]: not significantly toxic
toxicity to tumor cells (proliferation, EdU fluorescence intensity) [3]: not significantly toxic
expression of PD-L1 (Western blotting) [4]: significantly inhibited the expression of PD-L1
expression of PD-L1 (Western blotting) [5]: significantly inhibited the expression of PD-L1
expression of PD-L1 (Western blotting) [6]: significantly inhibited the expression of PD-L1
expression of PD-L1 on cell membranes (immunofluorescence) [7]: time-dependently decreased the expression of PD-L1
tumor growth / anti-tumor effect in words [8]: inhibited to a certain degree

— patent publication US12599596B2, “Anti-tumor pharmaceutical composition based on immune checkpoint blockade and use thereof” (Shanghai Hui Tian Jin Ze Biotech Co., Ltd., priority 2023, dated 2026)
